# pIC50: −log10 of the molar value.
# Test system: 699152-130-R-J1-PDC complex spheroid viability
# Assay: Anticancer human tumor 699152-130-R-J1-PDC patient-derived pancreatic carcinoma cell line growth inhibition [POLQ]
# Conditions: for pIC50: curve of first compound; for viability, T/C: stronger effect = lower value
# Protocol: Multicellular complex tumor spheroid response to Polymerase (POL) inhibitors (novobiocin, ART-558, RP6685) in combination with a variety of drugs and investigational agents in selected tumor cell lines
# The POL inhibitors (novobiocin, ART-558, and RP6685) were evaluated both individually and in combination with standard of care and investigational anticancer small molecules within a complex spheroid model of solid tumors. . Complex spheroids include a stromal component modeled by human endothelial cells (HUVEC) and fibroblasts modeled by human mesenchymal stem cells (MSCs). The concentration ranges selected for each drug and investigational agent were based upon clinically achievable concentrations if the clinical Cmax of the agent was known.
# Compounds. The drugs and investigational agents: novobiocin (NSC847541), ART-558 (NSC835418), RP-6685 (NSC848927), peposertib (NSC802822), ceralasertib (NSC780249), elimusertib (NSC800525), camonsertib (NSC841442), AZD-1390 (NSC803789), olaparib (NSC753686), talazoparib (NSC767125), rucaparib (NSC756644), sotorasib (NSC818433), MRTX-1133 (NSC836407), SN-38 (NSC673596), topotecan (NSC609699), epotoside (NSC141540), doxorubicin (NSC123127), gemcitabine (NSC613327), 5-fluorouracil (NSC19893), paclitaxel (NSC125973), vemurafenib (NSC761431), MSA-2 (NSC828583), SN-011 (NSC837082), adavosertib (NSC754352), prexasertib (NSC758257), carboplatin (NSC241240) and oxaliplatin (NSC266046), were obtained from the National Cancer Institute (NCI) Developmental Therapeutics Program Chemical Repository (21). The FDA-approved anticancer drug set is available from the Developmental Therapeutics Program at https://dtp.cancer.gov/organization/dscb/obtaining/. […] The stock solutions were prepared in dimethyl sulfoxide (DMSO, Sigma-Aldrich, St. Louis, MO, cat. D2650), except for the platinum compounds which were prepared in saline (Quality Biological, Gaithersburg, MD, cat. 114-055-101), at 800-fold the tested concentration and stored at -70 degrees C prior to their use. All drugs and investigational agents were tested over a range starting from a high concentration at or near the clinical Cmax and decreasing in half-log increments. If the clinical Cmax for an agent had not been determined, the highest concentration tested was 10 microM, except for SN-38, which was tested at a high concentration of 1 microM.
# Cell Culture. All cells were maintained in an incubator at 37 degrees C and 5% CO2 with 95% humidity. The PDC lines were cultured according to standard operating procedures established by the NCI PDMR (https://pdmr.cancer.gov). Table 3 of the manuscript, lists the cell lines along with the number of the three cell types plated to form the mct-spheroids and media for tumor cell growth. After thawing, all PDC lines, except 997537-175-T-J1-PDC and 415267-285-R-J2-PDC, were cultured in Matrigel-coated flasks prepared with a working solution of 1X Ham's F-12 nutrient mix, without supplementation (Thermo Fisher Scientific, cat. 11765054), 100 U/mL penicillin-streptomycin (Thermo Fisher Scientific, cat. 15140122), and 2.5% Matrigel (Corning Inc., Corning, NY, cat. 354248) for the first three passages. The two PDC lines 997537-175-T-J1-PDC and 415267-285-R-J2-PDC were cultured on uncoated flasks. The 857933-349-R-J2-PDC line was cultured in 6C/Colon 1B media containing advanced DMEM/F-12 (Thermo Fisher Scientific, cat. 12634028), 10 mM HEPES (Thermo Fisher Scientific, cat. 15630080), 1X GlutaMAX supplement (Thermo Fisher Scientific, cat. 35050061), 0.1 mg/mL primocin (InvivoGen, San Diego, CA, cat. ant-pm-2), 10% defined fetal bovine serum, heat inactivated (HyClone Laboratories Inc., Logan, UT, cat. SH30070.03HI), 50% L-WRN conditioned media (ATCC, cat. CRL-3276), 1.25 mM N-Acetyl-L-cysteine (Sigma-Aldrich, cat. A9165), 10 mM nicotinamide (Sigma-Aldrich, cat. N0636), 1X B-27 supplement (Thermo Fisher Scientific, cat. 17504044), 1X N-2 supplement (Thermo Fisher Scientific, cat. […]
# [1] = second compound 0.0316 µM, first compound 0.0316 µM
# [2] = second compound 0.0316 µM, first compound 0.1 µM
# [3] = second compound 0.0316 µM, first compound 0.316 µM
# [4] = second compound 0.0316 µM, first compound 1 µM
# [5] = second compound 0.1 µM, first compound 0.0316 µM
# [6] = second compound 0.1 µM, first compound 0.1 µM
# [7] = second compound 0.1 µM, first compound 0.316 µM
# [8] = second compound 0.1 µM, first compound 1 µM
# [9] = second compound 0.316 µM, first compound 0.0316 µM
# [10] = second compound 0.316 µM, first compound 0.1 µM
# [11] = second compound 0.316 µM, first compound 0.316 µM
# [12] = second compound 0.316 µM, first compound 1 µM
# [13] = second compound 1 µM, first compound 0.0316 µM
# [14] = second compound 1 µM, first compound 0.1 µM
# [15] = second compound 1 µM, first compound 0.316 µM
# [16] = second compound 1 µM, first compound 1 µM
# [17] = second compound 3.16 µM, first compound 0.0316 µM
# [18] = second compound 3.16 µM, first compound 0.1 µM
# [19] = second compound 3.16 µM, first compound 0.316 µM
# [20] = second compound 3.16 µM, first compound 1 µM
# [21] = second compound 10 µM, first compound 0.0316 µM
# [22] = second compound 10 µM, first compound 0.1 µM
# [23] = second compound 10 µM, first compound 0.316 µM
# [24] = second compound 10 µM, first compound 1 µM
# 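Note: spheroids exposed to agents for 7 days before viability reading.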
# 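Throughout, for viability, T/C: percent of DMSO vehicle control viability so 100% = vehicle and 0% = no viable signal.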
smiles,measurement,setting,value
CNCc1ccc(-c2[nH]c3cc(F)cc4c3c2CCNC4=O)cc1 + COC1C(OC(N)=O)C(O)C(Oc2ccc3c(O)c(NC(=O)c4ccc(O)c(CC=C(C)C)c4)c(=O)oc3c2C)OC1(C)C,pIC50,second compound 0.0316 µM,< 5.00
same,pIC50,second compound 0.1 µM,< 5.00
same,pIC50,second compound 0.316 µM,< 5.00
same,pIC50,second compound 1 µM,< 5.00
same,pIC50,second compound 3.16 µM,< 5.00
same,pIC50,second compound 10 µM,< 5.00
same,"viability, T/C",[1],94.8%
same,"viability, T/C",[2],95.1%
same,"viability, T/C",[3],101%
same,"viability, T/C",[4],106%
same,"viability, T/C","second compound 0.0316 µM, first compound 3.16 µM",126%
same,"viability, T/C","second compound 0.0316 µM, first compound 10 µM",123%
same,"viability, T/C",[5],96.4%
same,"viability, T/C",[6],95.6%
same,"viability, T/C",[7],92.9%
same,"viability, T/C",[8],120%
same,"viability, T/C","second compound 0.1 µM, first compound 3.16 µM",115%
same,"viability, T/C","second compound 0.1 µM, first compound 10 µM",130%
same,"viability, T/C",[9],102%
same,"viability, T/C",[10],103%
same,"viability, T/C",[11],106%
same,"viability, T/C",[12],97.8%
same,"viability, T/C","second compound 0.316 µM, first compound 3.16 µM",118%
same,"viability, T/C","second compound 0.316 µM, first compound 10 µM",125%
same,"viability, T/C",[13],101%
same,"viability, T/C",[14],94.9%
same,"viability, T/C",[15],107%
same,"viability, T/C",[16],98%
same,"viability, T/C","second compound 1 µM, first compound 3.16 µM",113%
same,"viability, T/C","second compound 1 µM, first compound 10 µM",114%
same,"viability, T/C",[17],103%
same,"viability, T/C",[18],105%
same,"viability, T/C",[19],93.8%
same,"viability, T/C",[20],98.2%
same,"viability, T/C","second compound 3.16 µM, first compound 3.16 µM",133%
same,"viability, T/C","second compound 3.16 µM, first compound 10 µM",93.6%
same,"viability, T/C",[21],102%
same,"viability, T/C",[22],88.3%
same,"viability, T/C",[23],107%
same,"viability, T/C",[24],101%
same,"viability, T/C","second compound 10 µM, first compound 3.16 µM",125%
same,"viability, T/C","second compound 10 µM, first compound 10 µM",108%
COc1cccc(OCCCN)c1-c1cc(Nc2cnc(C#N)cn2)n[nH]1 + COC1C(OC(N)=O)C(O)C(Oc2ccc3c(O)c(NC(=O)c4ccc(O)c(CC=C(C)C)c4)c(=O)oc3c2C)OC1(C)C,pIC50,second compound 0.0316 µM,6.59
same,pIC50,second compound 0.1 µM,6.28
same,pIC50,second compound 0.316 µM,6.31
same,pIC50,second compound 1 µM,6.53
same,pIC50,second compound 3.16 µM,< 6.00
same,pIC50,second compound 10 µM,< 6.00
same,"viability, T/C","second compound 0.0316 µM, first compound 0.00316 µM",92.4%
same,"viability, T/C","second compound 0.0316 µM, first compound 0.01 µM",91.4%
same,"viability, T/C",[1],57.9%
same,"viability, T/C",[2],63%
same,"viability, T/C",[3],49.7%
same,"viability, T/C",[4],43%
same,"viability, T/C","second compound 0.1 µM, first compound 0.00316 µM",96.8%
same,"viability, T/C","second compound 0.1 µM, first compound 0.01 µM",89.2%
same,"viability, T/C",[5],70.3%
same,"viability, T/C",[6],58.1%
same,"viability, T/C",[7],50.8%
same,"viability, T/C",[8],48.6%
same,"viability, T/C","second compound 0.316 µM, first compound 0.00316 µM",107%
same,"viability, T/C","second compound 0.316 µM, first compound 0.01 µM",83.1%
same,"viability, T/C",[9],67.3%
same,"viability, T/C",[10],55.2%
same,"viability, T/C",[11],55%
same,"viability, T/C",[12],46.1%
same,"viability, T/C","second compound 1 µM, first compound 0.00316 µM",93.7%
same,"viability, T/C","second compound 1 µM, first compound 0.01 µM",83.2%
same,"viability, T/C",[13],69.2%
same,"viability, T/C",[14],52.3%
same,"viability, T/C",[15],48.4%
same,"viability, T/C",[16],50.8%
same,"viability, T/C","second compound 3.16 µM, first compound 0.00316 µM",107%
same,"viability, T/C","second compound 3.16 µM, first compound 0.01 µM",78.2%
same,"viability, T/C",[17],60.7%
same,"viability, T/C",[18],54.8%
same,"viability, T/C",[19],57.5%
same,"viability, T/C",[20],48.8%
same,"viability, T/C","second compound 10 µM, first compound 0.00316 µM",94.8%
same,"viability, T/C","second compound 10 µM, first compound 0.01 µM",90.8%
same,"viability, T/C",[21],62.3%
same,"viability, T/C",[22],60.3%
same,"viability, T/C",[23],55%
same,"viability, T/C",[24],46.3%

# Source: PubChem BioAssay AID1963835 (Molecular Pharmacology Branch, DTP, NCI, 2024)
